Several values for one entry are separate records, joined by “and”; a condition that tells them apart may be missing. Identical values can stand only once.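 Compound exposure: 48 hours, 5 concentrations, 96-well plates. GI50 marks 50% less growth. TGI is the concentration that stops growth completely.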
Columns and labels:
Assay in all cases: NCI tumour cell line growth inhibition, 48 h
A549 NSCLC = test system: A549 NSCLC
CCRF-CEM leukemia = test system: CCRF-CEM leukemia
MALME-3M melanoma = test system: MALME-3M melanoma
NCI-H226 lung = test system: NCI-H226 lung
NCI-H23 lung = test system: NCI-H23 lung
OVCAR-4 ovarian = test system: OVCAR-4 ovarian
OVCAR-5 ovarian = test system: OVCAR-5 ovarian
OVCAR-8 ovarian = test system: OVCAR-8 ovarian
RXF 393 renal = test system: RXF 393 renal
U251 CNS = test system: U251 CNS

SMILES	GI50 (A549 NSCLC)	TGI (A549 NSCLC)	GI50 (CCRF-CEM leukemia)	TGI (CCRF-CEM leukemia)	GI50 (MALME-3M melanoma)	TGI (MALME-3M melanoma)	GI50 (NCI-H226 lung)	TGI (NCI-H226 lung)	GI50 (NCI-H23 lung)	TGI (NCI-H23 lung)	GI50 (OVCAR-4 ovarian)	TGI (OVCAR-4 ovarian)	GI50 (OVCAR-5 ovarian)	TGI (OVCAR-5 ovarian)	GI50 (OVCAR-8 ovarian)	TGI (OVCAR-8 ovarian)	GI50 (RXF 393 renal)	TGI (RXF 393 renal)	GI50 (U251 CNS)	TGI (U251 CNS)
CCCCC(=O)N(c1ccc(Nc2c3ccccc3nc3cc([N+](=O)[O-])ccc23)cc1)S(C)(=O)=O	1.99 µM	62.2 µM	3.65 µM	> 100 µM	14.3 µM	34.8 µM	8 µM	32.9 µM	12.6 µM	42.5 µM	11.1 µM	29.2 µM	77.6 µM	> 100 µM	11 µM	78.8 µM	8.44 µM	27.8 µM	5.32 µM	> 59.1 µM
O=C1C=C(NCCO)c2nccc3c2c1nc1ccccc13	16.4 µM	> 100 µM	21.3 µM	> 100 µM	17.4 µM	49 µM	14.8 µM	59.5 µM	19.1 µM	67.3 µM	41.3 µM	> 100 µM	28.6 µM	> 100 µM	40 µM	> 100 µM	28.2 µM	89.4 µM	23.4 µM	> 100 µM
C[C@]12CC[C@H](O[C@@H]3O[C@H](CO[C@@H]4O[C@H](CO)[C@@H](O)[C@H](O)[C@H]4O)[C@@H](O)[C@H](O)[C@H]3O)C[C@@H]1CC[C@@H]1[C@@H]2CC[C@]2(C)[C@@H](C3=CC(=O)OC3)CC[C@]12O		15.9 µM		> 100 µM		38.1 µM		> 95.8 µM		28.1 µM		57.8 µM		> 76.6 µM		96.9 µM		41.1 µM		> 100 µM
O=C(O)c1ccc2c(c1)C(=O)N(c1ccc(S(=O)(=O)c3ccc(N4C(=O)c5ccc(C(=O)O)cc5C4=O)cc3)cc1)C2=O		> 100 µM		> 100 µM		> 100 µM		> 100 µM		> 100 µM		> 100 µM		> 100 µM		> 100 µM		> 100 µM		> 100 µM
N#C/C(=C\c1cc(O)c(O)c(O)c1)C(N)=O		> 100 µM		> 76.2 µM		> 100 µM		> 100 µM		> 100 µM		> 100 µM		> 100 µM		> 100 µM		> 100 µM		> 100 µM
c1ccc(-c2[nH]ncc2-c2ccnc(-c3ccc(OCCN4CCOCC4)cc3)c2)nc1	> 25 µM	> 25 µM	> 25 µM	> 25 µM	> 25 µM	> 25 µM	> 25 µM	> 25 µM	> 25 µM	> 25 µM	> 25 µM	> 25 µM	> 25 µM	> 25 µM	> 25 µM	> 25 µM	> 25 µM	> 25 µM	> 25 µM	> 25 µM
Cc1cc(O)ccc1C1=NN(c2ccc(S(N)(=O)=O)cc2)C(=O)CC1	14 µM and 15.3 µM	50 µM and > 100 µM	9.88 µM and 10.5 µM	50 µM and > 100 µM		50 µM and 59.7 µM	10.9 µM and 94.5 µM	50 µM and > 100 µM	14.5 µM and 22.5 µM	50 µM and > 100 µM	> 100 µM	> 100 µM	> 100 µM	> 100 µM	15.4 µM and 46.2 µM	50 µM and > 100 µM	6.31 µM and 13.7 µM	50 µM and 42.1 µM	6.97 µM and 16.1 µM	50 µM and 67 µM
Cc1ccc(N)cc1[As]=[As]c1cc(N)ccc1C (centres undefined)	4.36 µM	20 µM	0.298 µM	2.36 µM	0.679 µM	2.03 µM	1.57 µM	3.07 µM	1.7 µM	3.58 µM	1.42 µM	2.79 µM	2.07 µM	3.73 µM	1.57 µM	2.98 µM	1.19 µM	2.47 µM	1.35 µM	2.69 µM
CC(=Nc1ccc(N(C)C)cc1)c1ccccc1		81.9 µM		92.6 µM		25.9 µM		> 100 µM		> 100 µM		40.8 µM		> 100 µM		> 100 µM		20.6 µM		> 100 µM
CCN1CCN(c2nc(C)cc(NCc3cc(Nc4ccnc5cc(Cl)ccc45)ccc3F)n2)CC1	3.54 µM	13.9 µM	2.06 µM	15.2 µM	1.78 µM	3.66 µM	2.82 µM	10.3 µM	2.62 µM	13 µM	1.59 µM	7.7 µM	2.2 µM	6.71 µM	3.2 µM	13.7 µM	1.27 µM	3 µM	1.95 µM	5.44 µM
CC1(C)C(=O)OC(n2cc(F)c(=O)[nH]c2=O)C1=O (centres undefined)		> 100 µM		> 100 µM		> 100 µM		> 100 µM		> 100 µM		> 100 µM		> 100 µM		> 100 µM		> 100 µM		> 100 µM
Oc1ccc2c(=S)cc(-c3ccc(Br)cc3)oc2c1O	3.26 µM		2.53 µM	8.03 µM	1.87 µM	6.06 µM	7.22 µM	39.4 µM	1.52 µM	6.38 µM	2.03 µM	> 100 µM	5.83 µM	78 µM	2.28 µM	8.92 µM	2.51 µM	8.78 µM	2.44 µM	8.93 µM
Cn1[nH]cc2ccc3nc4ccccc4c(=O)c3c21		> 66 µM		> 100 µM		68.7 µM		45.5 µM		53.4 µM		75.8 µM		92.8 µM		> 94.9 µM		44.4 µM		30.7 µM
COc1ccc(CN2C(=O)[C@@H]3Cc4c(OC)c(C)c(OC)c(OC)c4[C@H](/C2=C\c2cc(OC)c(OC)c(C)c2OC)N3C(=O)OC(C)C)cc1		> 100 µM		> 100 µM		> 100 µM		34.1 µM		> 100 µM		> 100 µM		> 100 µM		> 100 µM		> 100 µM		> 100 µM
CC(C)(C)[Si](C)(C)OCC1OC(n2cnc3c(=O)[nH]cnc32)CC1O (centres undefined)		> 100 µM		> 100 µM		> 100 µM		> 100 µM		> 100 µM		> 100 µM		> 100 µM		> 100 µM		> 100 µM		> 100 µM
CN1CCC2(CC1)N=C(SCC(=O)Nc1cnc3ccccc3c1)C(c1ccc(Br)cc1)=N2	5.01 µM	17.4 µM	2.21 µM	5.31 µM	1.78 µM	3.36 µM	10.4 µM	26.2 µM	4.3 µM	16.3 µM	3.52 µM	15.8 µM	2.43 µM	7.33 µM	2.33 µM	5.54 µM	1.77 µM	4.29 µM	1.83 µM	3.65 µM
O=C(O)CCC(c1ccccc1)(c1ccccc1)c1ccccc1		> 100 µM		> 100 µM		> 100 µM		> 100 µM		> 100 µM		> 100 µM		> 100 µM		> 100 µM	49.5 µM	> 100 µM		> 100 µM
Cn1c(CCCC(=O)O)nc2cc(N(CCCl)CCCl)ccc21	> 100 µM	> 100 µM	28.1 µM	> 77.7 µM	49.6 µM	> 100 µM	> 66.2 µM	> 100 µM	74.9 µM	> 100 µM	> 100 µM	> 100 µM	> 100 µM	> 100 µM	> 91.2 µM	> 100 µM	> 100 µM	> 100 µM	72.7 µM	> 100 µM
O=C(/C=C/c1ccc(Cl)c(Cl)c1)c1ccccc1Cl		31.6 µM		19.1 µM		30.5 µM		31.6 µM		26.9 µM		27.9 µM		30.4 µM		11.8 µM		31.6 µM		10.3 µM
Cc1cccc(C)c1NC(=O)CCC(=O)NC(N)=NC#N		> 100 µM		> 100 µM		> 100 µM		> 100 µM		> 100 µM		> 100 µM		> 100 µM		> 100 µM		> 100 µM		> 100 µM
NS(=O)(=O)c1ccc(N=Nc2ccc[nH]c2=O)cc1		> 100 µM		74.6 µM		> 100 µM		> 100 µM		> 100 µM		> 100 µM		> 100 µM		> 100 µM		> 100 µM		> 100 µM
CC1(C)C(N2CCOCC2)CS1(=O)=O (centres undefined)		> 10 µM		> 10 µM		> 10 µM		> 10 µM		> 10 µM		> 10 µM		> 10 µM		> 10 µM		> 10 µM		> 10 µM
O=C1/C(=C\c2ccc(F)cc2)CN(C(=O)c2ccccc2F)C/C1=C\c1ccc(F)cc1	2.59 µM	8.75 µM	0.736 µM	4.97 µM	2 µM	4.09 µM	3.41 µM	12.8 µM	2.09 µM	4.91 µM	2.33 µM	6.53 µM	1.88 µM	4.04 µM	1.72 µM	5.14 µM	1.78 µM	3.54 µM	1.27 µM	2.58 µM
CC12OC(CC(O)C1O)n1c3ccccc3c3c4c(c5c6ccccc6n2c5c31)C(=O)N(CCN1CCOCC1)C4=O (centres undefined)	0.4 µM	2.35 µM	1.16 µM	8.95 µM	0.921 µM	5.27 µM	1.11 µM	4.01 µM	1.05 µM	4.87 µM	2.2 µM	12.3 µM	2.32 µM	9.65 µM	1.43 µM	8.71 µM	1.31 µM	5.03 µM	0.604 µM	5.65 µM
CN1CCN(CCCNC(=O)c2c3c(n4ccccc24)C(=O)c2ncccc2C3=O)CC1	1.26 µM	5.48 µM	2.16 µM	> 27.8 µM	0.376 µM	0.99 µM	2.67 µM	14.1 µM	0.674 µM	3.08 µM	0.413 µM	1.56 µM	2.42 µM	> 53.2 µM	0.888 µM	5.99 µM	1.52 µM	10.4 µM	1.48 µM	6.54 µM
CC(=O)OC1CCC2OOC1O2 (centres undefined)		> 100 µM		> 100 µM		> 100 µM		> 100 µM		> 100 µM		> 100 µM		> 100 µM		> 100 µM		> 100 µM		> 100 µM
CCN(CC)CCNC(=O)c1cccc2c1-c1ccccc1C2=O	> 100 µM	> 100 µM	> 100 µM	> 100 µM	> 100 µM	> 100 µM	> 100 µM	> 100 µM	> 100 µM	> 100 µM	> 100 µM	> 100 µM	> 100 µM	> 100 µM	> 100 µM	> 100 µM	> 100 µM	> 100 µM	> 100 µM	> 100 µM
Cc1nc2sc(C(=O)Nc3cccc(Br)c3C)c(N)c2cc1C(O)c1ccccc1 (centres undefined)	0.0466 µM	> 100 µM	0.0406 µM	> 100 µM	0.1 µM	20.5 µM	0.546 µM	22.4 µM	0.0616 µM	15 µM	0.147 µM	> 70.5 µM	0.061 µM	> 60.2 µM	0.0487 µM	> 100 µM	0.0294 µM	26 µM	0.0438 µM	14.6 µM
COc1cc2c(cc1OC)C(C(CCCCCC(CCC(C)C)C1NCCc3cc(OC)c(OC)cc31)CCC(C)C)NCC2 (centres undefined)	0.98 µM	2.44 µM	0.489 µM	2.13 µM	2.01 µM	4.03 µM	1.79 µM	3.6 µM	1.66 µM	3.18 µM	1.54 µM	2.92 µM	1.69 µM	3.17 µM	1.01 µM	2.52 µM	1.3 µM	2.75 µM	0.285 µM	0.979 µM
CN(C)NC(=O)/C(=C/c1ccc(Cl)cc1)NC(=O)c1ccccc1		> 100 µM		> 100 µM		> 100 µM		> 100 µM		> 100 µM		> 100 µM		> 100 µM		> 100 µM		> 100 µM		> 100 µM

— PubChem BioAssay (NCI)
